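A five-concentration, 48-hour dose response in 96-well plates underlies each endpoint, interpolated linearly between surrounding concentrations. At the TGI there is no net growth.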
Columns and labels:
Experiment in all cases: growth of human tumour cells (NCI), 48 h
[1] = test system: RPMI-8226 leukemia
[2] = test system: LOX IMVI melanoma
[3] = test system: SK-OV-3 ovarian
[4] = test system: OVCAR-4 ovarian
[5] = test system: M14 melanoma
[6] = test system: NCI-H522 lung
[7] = test system: OVCAR-3 ovarian
[8] = test system: NCI-H460 lung
[9] = test system: DU-145 prostate
[10] = test system: BT-549 breast
[11] = test system: 786-0 renal
[12] = test system: OVCAR-8 ovarian
[13] = test system: MALME-3M melanoma
[14] = test system: UACC-62 melanoma
[15] = test system: EKVX NSCLC
[16] = test system: PC-3 prostate
[17] = test system: CCRF-CEM leukemia
[18] = test system: COLO 205 colon
[19] = test system: IGROV1 ovarian
[20] = test system: TK-10 renal
[21] = test system: SR leukemia
[22] = test system: NCI/ADR-RES ovarian
[23] = test system: SN12C renal
[24] = test system: SF-295 CNS
[25] = test system: CAKI-1 renal
[26] = test system: SK-MEL-28 melanoma
[27] = test system: MDA-MB-435
[28] = test system: NCI-H23 lung
[29] = test system: SW-620 colon
[30] = test system: MCF7 breast
[31] = test system: MOLT-4 leukemia
[32] = test system: MDA-N
[33] = test system: SK-MEL-2 melanoma
[34] = test system: UO-31 renal
[35] = test system: SNB-19 CNS
[36] = test system: OVCAR-5 ovarian
[37] = test system: SNB-75 CNS
[38] = test system: HS 578T breast
[39] = test system: ACHN renal
[40] = test system: HOP-62 NSCLC
[41] = test system: KM12 colon
[42] = test system: U251 CNS
[43] = test system: HOP-92 NSCLC
[44] = test system: HL-60(TB) leukemia
[45] = test system: MDA-MB-231 breast
[46] = test system: SF-268 CNS
[47] = test system: HCT-15 colon
[48] = test system: K-562 leukemia
[49] = test system: HCT-116 colon
[50] = test system: UACC-257 melanoma
[51] = test system: NCI-H226 lung
[52] = test system: A549 NSCLC
[53] = test system: SF-539 CNS
[54] = test system: HT29 colon
[55] = test system: RXF 393 renal
[56] = test system: A498 renal
[57] = test system: T-47D breast
[58] = test system: SK-MEL-5 melanoma
[59] = test system: HCC-2998 colon

Q: What does the source list for O=C1/C(=C/c2ccccc2)CCCc2ccccc21?
A: TGI [1]: > 100 µM; TGI [2]: 34.9 µM; TGI [3]: > 100 µM; TGI [4]: 32 µM; TGI [5]: 41.4 µM; TGI [6]: 51.6 µM; TGI [7]: 35.2 µM; TGI [8]: 31.4 µM; TGI [9]: 54.7 µM; TGI [10]: 36 µM; TGI [11]: 31.3 µM; TGI [12]: 45.5 µM; TGI [13]: 42 µM; TGI [14]: 28.6 µM; TGI [15]: 37.3 µM; TGI [16]: 35.1 µM; TGI [17]: 43.6 µM; TGI [18]: 33.3 µM; TGI [19]: 38.8 µM; TGI [20]: 37.5 µM; TGI [21]: 37.8 µM; TGI [22]: 40.5 µM; TGI [23]: 33.8 µM; TGI [24]: 35.9 µM; TGI [25]: 76.2 µM; TGI [26]: 32.6 µM; TGI [27]: 38.9 µM; TGI [28]: 34.2 µM; TGI [29]: 32.9 µM; TGI [30]: 41.6 µM; TGI [31]: 48.1 µM; TGI [32]: 36.7 µM; TGI [33]: 29.9 µM; TGI [34]: 31.9 µM; TGI [35]: 29.3 µM; TGI [36]: 42.2 µM; TGI [37]: > 100 µM; TGI [38]: 40.4 µM; TGI [39]: 47 µM; TGI [40]: 36.3 µM; TGI [41]: 35.2 µM; TGI [42]: 29.1 µM; TGI [43]: 32.9 µM; TGI [44]: 35.5 µM; TGI [45]: 39.1 µM; TGI [46]: 32.6 µM; TGI [47]: 32.3 µM; TGI [48]: 49.4 µM; TGI [49]: 30.7 µM; TGI [50]: 33.3 µM; TGI [51]: 36.6 µM; TGI [52]: 67.1 µM; TGI [53]: 32.1 µM; TGI [54]: 36 µM

Q: Which TGI [1] does the source give for COc1ccc2c3c1OC1C(OC)(OC)CC4(C=C2)CN(C)CCC314 (stereo unspecified) here?
A: The TGI was over 100 µM.

Q: And the TGI [2]?
A: The TGI was over 100 µM.

Q: What about the TGI [3] of the same compound?
A: The TGI was over 100 µM.

Q: And the TGI [4]?
A: The TGI was over 100 µM.

Q: What about the TGI [7] of the same compound?
A: Its TGI is over 100 µM.

Q: And the TGI [8]?
A: The TGI was over 100 µM.

Q: And the TGI [55]?
A: Its TGI is over 100 µM.

Q: What about the TGI [9] of the same compound?
A: The TGI was over 100 µM.

Q: What about the TGI [10] of the same compound?
A: The TGI was over 100 µM.

Q: What about the TGI [11] of the same compound?
A: Its TGI is over 100 µM.

Q: What about the TGI [12] of the same compound?
A: The TGI was over 100 µM.

Q: And the TGI [13]?
A: The TGI was over 100 µM.

Q: And the TGI [14]?
A: The TGI was over 100 µM.

Q: And the TGI [15]?
A: Its TGI is over 100 µM.

Q: And the TGI [17]?
A: Its TGI is over 100 µM.

Q: What about the TGI [18] of the same compound?
A: Its TGI is over 100 µM.

Q: And the TGI [19]?
A: The TGI was over 100 µM.

Q: What about the TGI [20] of the same compound?
A: The TGI was over 100 µM.

Q: And the TGI [56]?
A: The TGI was over 100 µM.

Q: And the TGI [57]?
A: The TGI was over 100 µM.

Q: What about the TGI [22] of the same compound?
A: The TGI was over 100 µM.

Q: What about the TGI [23] of the same compound?
A: The TGI was over 100 µM.

Q: What about the TGI [24] of the same compound?
A: The TGI was over 100 µM.

Q: What about the TGI [25] of the same compound?
A: Its TGI is over 100 µM.

Q: What about the TGI [26] of the same compound?
A: Its TGI is over 100 µM.

Q: What about the TGI [27] of the same compound?
A: Its TGI is over 100 µM.

Q: And the TGI [28]?
A: Its TGI is over 100 µM.

Q: And the TGI [29]?
A: The TGI was over 100 µM.

Q: What about the TGI [30] of the same compound?
A: Its TGI is over 100 µM.

Q: And the TGI [31]?
A: Its TGI is over 100 µM.

Q: What about the TGI [32] of the same compound?
A: The TGI was over 100 µM.

Q: What about the TGI [34] of the same compound?
A: The TGI was over 100 µM.

Q: And the TGI [58]?
A: The TGI was over 100 µM.

Q: And the TGI [35]?
A: The TGI was over 100 µM.

Q: What about the TGI [36] of the same compound?
A: Its TGI is over 100 µM.

Q: What about the TGI [59] of the same compound?
A: The TGI was over 100 µM.

Q: And the TGI [37]?
A: Its TGI is over 100 µM.

Q: And the TGI [39]?
A: The TGI was over 100 µM.

Q: And the TGI [40]?
A: The TGI was over 100 µM.

Q: What about the TGI [41] of the same compound?
A: Its TGI is over 100 µM.

Q: What about the TGI [42] of the same compound?
A: The TGI was over 100 µM.

Q: What about the TGI [44] of the same compound?
A: Its TGI is over 100 µM.

Q: And the TGI [45]?
A: The TGI was over 100 µM.

Q: What about the TGI [46] of the same compound?
A: The TGI was over 100 µM.

Q: What about the TGI [47] of the same compound?
A: The TGI was over 100 µM.

Q: What about the TGI [48] of the same compound?
A: The TGI was over 100 µM.

Q: What about the TGI [49] of the same compound?
A: Its TGI is over 100 µM.

Q: And the TGI [50]?
A: The TGI was over 100 µM.

Q: And the TGI [51]?
A: The TGI was over 100 µM.

Q: What about the TGI [52] of the same compound?
A: Its TGI is over 100 µM.

Q: And the TGI [53]?
A: Its TGI is over 100 µM.

Q: What about the TGI [54] of the same compound?
A: Its TGI is over 100 µM.
